Assay results as given in US10039764B2, “Treatment and diagnosis of cancer and precancerous conditions using PDE10A inhibitors and methods to measure PDE10A expression” (University of South Alabama, priority 2013, dated 2018).
pIC50: −log10 of the molar value. Where two headings read alike, the source gives them in different places.

What was measured:
[1] = tested on: SW480 human colon tumor cells; assay: Growth assay (Cell Titer Glo), SW480; type: cell-based
From the text: (§1) All cell lines comprising the NCI-60 cancer cell panel were obtained from the NCI Developmental Therapeutics Program and maintained under the same standard conditions. The human normal colonocyte (NCM460) cell line was purchased from Incell (San Antonio, Tex.) and grown according to the manufacturer's specifications. The human colon adenoma cell line, LT97, was a gift from Dr. Brigitte Marian (Medical University Vienna, Austria) and grown according to the provider's specifications. Human mammary epithelial cells (HMEC) were purchased from Lonzo and grown using culture conditions as recommended by the supplier.
(§2) Ninety-six (96)-well microtiter plates were seeded at a density of 5,000 cells per well. For drug treatment, cells were treated with compounds or vehicle control, and incubated at 37° C. for 72 hours. For siRNA assays, cells were transfected with siRNA under the same conditions described above. The effect of treatment with inhibitors or siRNA knockdown of PDE10A on growth was measured using the Cell Titer Glo Assay (Promega), which measures viable cell number based on ATP content.
(§3) The effect of the inhibitors on the growth of human colon tumor and normal colonocytes was measured using the Cell Titer Glo Cell Viability Assay (Promega) as described above. The inhibitory potency toward purified recombinant phosphodiesterase enzymes was measured using the IMAP Phosphodiesterase Assay as described in the Materials and Methods section.

[2] = tested on: HCT116 human colon tumor cells; assay: Growth assay (Cell Titer Glo), HCT116; type: cell-based; conditions: Homo sapiens, HCT-116
From the text: as §1, §2
(§4) Effect of various PDE isozyme inhibitors on the growth of human colon tumor cells HCT116 and HT29 was determined using the Cell Titer Glo Cell Viability Assay (Promega) following 72 hours of treatment.
as §3

PDE11A = target: T1, PDE11A (Homo sapiens, UniProt Q9HCR9); assay: IMAP fluorescence polarization PDE assay, PDE11A; type: biochemical
T1 construct: purchased BPS Biosciences
T1 sequence (Q9HCR9 whole entry): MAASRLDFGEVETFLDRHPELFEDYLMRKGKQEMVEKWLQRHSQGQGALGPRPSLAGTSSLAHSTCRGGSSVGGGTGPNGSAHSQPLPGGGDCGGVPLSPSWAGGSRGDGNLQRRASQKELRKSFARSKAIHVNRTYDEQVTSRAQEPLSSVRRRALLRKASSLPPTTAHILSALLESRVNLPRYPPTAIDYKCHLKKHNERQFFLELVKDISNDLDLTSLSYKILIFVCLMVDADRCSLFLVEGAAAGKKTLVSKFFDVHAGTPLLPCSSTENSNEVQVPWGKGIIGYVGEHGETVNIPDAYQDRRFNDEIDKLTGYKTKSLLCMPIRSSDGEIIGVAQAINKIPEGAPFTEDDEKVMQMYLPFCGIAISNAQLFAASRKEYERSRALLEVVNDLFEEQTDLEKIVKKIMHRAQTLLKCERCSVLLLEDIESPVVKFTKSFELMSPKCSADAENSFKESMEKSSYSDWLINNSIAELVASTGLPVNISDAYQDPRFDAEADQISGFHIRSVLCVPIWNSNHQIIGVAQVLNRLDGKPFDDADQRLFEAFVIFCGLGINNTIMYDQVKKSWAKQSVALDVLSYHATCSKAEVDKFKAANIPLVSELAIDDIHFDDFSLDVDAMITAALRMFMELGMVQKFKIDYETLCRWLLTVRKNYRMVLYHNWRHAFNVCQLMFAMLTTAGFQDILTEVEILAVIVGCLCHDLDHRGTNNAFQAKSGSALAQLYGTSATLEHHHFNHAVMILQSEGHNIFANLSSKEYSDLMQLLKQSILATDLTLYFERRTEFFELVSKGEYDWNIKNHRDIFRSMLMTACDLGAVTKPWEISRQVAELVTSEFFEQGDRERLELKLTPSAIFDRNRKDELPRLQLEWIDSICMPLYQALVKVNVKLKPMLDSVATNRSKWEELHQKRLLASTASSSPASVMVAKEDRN
Description: (§5) MY5445 was purchased from EMD Millipore. […] Recombinant PDE enzymes were purchased from BPS Biosciences. DMSO was used as the vehicle for testing effects of all compounds.
(§6) PDE enzymatic activity was measured using IMAP fluorescence polarization assay (Molecular Devices. Inc.). […] For experiments involving cell extracts, 2×10^5 cells per well were plated on a six-well tissue culture plate 72 hours prior to cell lysis.
as §3

PDE3B = target: T2, PDE3B (Homo sapiens, UniProt Q13370); assay: IMAP fluorescence polarization PDE assay, PDE3B; type: biochemical; conditions: substrate cGMP; read-out: Phosphodiesterase Inhibition PDE3B cGMP IC50
T2 construct: purchased BPS Biosciences
Description: as §5, §6, §3

PDE10A = target: T3, PDE10A (Homo sapiens, UniProt Q9Y233); assay: IMAP fluorescence polarization PDE assay, PDE10A; type: biochemical; conditions: recombinant enzyme
T3 construct: other: substrate cGMP; recombinant enzyme; other: substrate cAMP
T3 sequence (Q9Y233 290-1055 limits assumed): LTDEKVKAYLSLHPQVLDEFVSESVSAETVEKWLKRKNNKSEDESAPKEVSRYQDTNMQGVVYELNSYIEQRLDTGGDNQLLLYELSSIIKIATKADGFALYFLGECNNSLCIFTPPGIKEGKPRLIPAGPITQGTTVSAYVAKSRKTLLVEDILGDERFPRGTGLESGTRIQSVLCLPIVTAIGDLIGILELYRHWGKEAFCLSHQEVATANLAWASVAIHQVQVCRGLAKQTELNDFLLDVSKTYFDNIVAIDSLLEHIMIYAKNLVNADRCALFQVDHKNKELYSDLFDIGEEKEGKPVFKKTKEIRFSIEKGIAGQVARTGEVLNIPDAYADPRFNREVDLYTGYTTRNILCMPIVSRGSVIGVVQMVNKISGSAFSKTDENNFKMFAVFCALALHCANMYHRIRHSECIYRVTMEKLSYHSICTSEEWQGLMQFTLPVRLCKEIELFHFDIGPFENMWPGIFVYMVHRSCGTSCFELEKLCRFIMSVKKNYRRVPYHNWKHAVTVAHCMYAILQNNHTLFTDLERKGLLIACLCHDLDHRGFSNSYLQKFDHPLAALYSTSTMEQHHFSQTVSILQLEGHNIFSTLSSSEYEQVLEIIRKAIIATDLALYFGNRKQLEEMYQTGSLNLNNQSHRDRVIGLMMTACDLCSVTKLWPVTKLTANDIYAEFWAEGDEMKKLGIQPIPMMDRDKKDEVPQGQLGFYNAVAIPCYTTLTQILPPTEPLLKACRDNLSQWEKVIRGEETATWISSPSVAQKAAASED
Description: as §5, §6, §3

PDE3A = target: T4, PDE3A (Homo sapiens, UniProt Q14432); assay: IMAP fluorescence polarization PDE assay, PDE3A; type: biochemical
T4 construct: purchased BPS Biosciences
T4 sequence (Q14432 whole entry): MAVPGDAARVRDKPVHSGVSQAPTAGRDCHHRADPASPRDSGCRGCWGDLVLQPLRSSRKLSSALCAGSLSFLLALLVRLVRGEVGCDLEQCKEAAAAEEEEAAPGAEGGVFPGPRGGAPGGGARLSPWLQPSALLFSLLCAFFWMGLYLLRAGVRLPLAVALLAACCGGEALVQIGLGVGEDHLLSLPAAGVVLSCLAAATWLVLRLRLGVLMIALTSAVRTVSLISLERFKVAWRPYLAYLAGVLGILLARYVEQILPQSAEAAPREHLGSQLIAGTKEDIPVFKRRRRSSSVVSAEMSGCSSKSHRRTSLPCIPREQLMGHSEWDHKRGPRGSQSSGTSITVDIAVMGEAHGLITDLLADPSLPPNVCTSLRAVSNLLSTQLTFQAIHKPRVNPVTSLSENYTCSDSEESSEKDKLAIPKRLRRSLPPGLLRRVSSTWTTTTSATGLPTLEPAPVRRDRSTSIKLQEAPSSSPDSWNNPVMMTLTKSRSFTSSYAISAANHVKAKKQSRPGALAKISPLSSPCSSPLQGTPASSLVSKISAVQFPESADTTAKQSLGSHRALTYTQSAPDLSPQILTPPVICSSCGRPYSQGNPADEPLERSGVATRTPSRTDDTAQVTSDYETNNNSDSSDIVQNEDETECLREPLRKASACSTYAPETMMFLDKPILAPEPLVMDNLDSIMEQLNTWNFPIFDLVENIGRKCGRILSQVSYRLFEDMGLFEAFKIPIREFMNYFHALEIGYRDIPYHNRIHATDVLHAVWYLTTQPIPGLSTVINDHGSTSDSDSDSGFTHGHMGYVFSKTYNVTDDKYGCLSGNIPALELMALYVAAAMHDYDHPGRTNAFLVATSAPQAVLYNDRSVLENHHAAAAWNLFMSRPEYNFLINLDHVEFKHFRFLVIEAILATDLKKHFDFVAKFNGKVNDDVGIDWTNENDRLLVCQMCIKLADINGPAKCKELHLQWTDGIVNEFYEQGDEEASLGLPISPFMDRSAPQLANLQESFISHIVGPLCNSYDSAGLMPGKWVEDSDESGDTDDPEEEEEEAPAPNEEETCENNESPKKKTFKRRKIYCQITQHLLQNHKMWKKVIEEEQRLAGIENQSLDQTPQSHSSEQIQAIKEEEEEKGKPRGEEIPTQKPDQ
Description: as §5, §6, §3

PDE9A = target: T5, PDE9A (Homo sapiens, UniProt O76083); assay: IMAP fluorescence polarization PDE assay, PDE9A; type: biochemical; conditions: substrate cGMP; read-out: Phosphodiesterase Inhibition PDE9A cGMP IC50
T5 construct: purchased BPS Biosciences
Description: as §5, §6, §3

PDE1A = target: T6, PDE1A (Homo sapiens, UniProt P54750); assay: IMAP fluorescence polarization PDE assay, PDE1A; type: biochemical
T6 construct: purchased BPS Biosciences
T6 sequence (P54750 whole entry): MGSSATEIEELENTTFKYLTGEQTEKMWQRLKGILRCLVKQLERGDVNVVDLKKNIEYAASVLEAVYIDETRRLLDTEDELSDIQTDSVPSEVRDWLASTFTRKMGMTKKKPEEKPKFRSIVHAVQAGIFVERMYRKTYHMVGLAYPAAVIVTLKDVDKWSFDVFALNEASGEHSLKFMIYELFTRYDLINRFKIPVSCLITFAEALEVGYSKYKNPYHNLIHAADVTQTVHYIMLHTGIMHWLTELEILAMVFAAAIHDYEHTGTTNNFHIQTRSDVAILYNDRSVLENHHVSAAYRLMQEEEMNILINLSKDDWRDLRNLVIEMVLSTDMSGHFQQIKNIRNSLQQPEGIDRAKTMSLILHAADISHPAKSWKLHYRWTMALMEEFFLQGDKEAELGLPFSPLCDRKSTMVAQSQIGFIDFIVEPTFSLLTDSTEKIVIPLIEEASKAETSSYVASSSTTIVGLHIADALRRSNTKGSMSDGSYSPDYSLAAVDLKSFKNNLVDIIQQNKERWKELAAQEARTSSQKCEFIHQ
Description: as §5, §6, §3

[3] = tested on: normal colonocytes (NCM460); assay: Growth assay (Cell Titer Glo), normal colonocytes NCM460; type: cell-based, human; conditions: for pIC50: Homo sapiens, NCM460
From the text: as §1, §2, §3

PDE2A = target: T7, PDE2A (Homo sapiens, UniProt O00408); assay: IMAP fluorescence polarization PDE assay, PDE2A; type: biochemical
T7 construct: purchased BPS Biosciences
T7 sequence (O00408 whole entry): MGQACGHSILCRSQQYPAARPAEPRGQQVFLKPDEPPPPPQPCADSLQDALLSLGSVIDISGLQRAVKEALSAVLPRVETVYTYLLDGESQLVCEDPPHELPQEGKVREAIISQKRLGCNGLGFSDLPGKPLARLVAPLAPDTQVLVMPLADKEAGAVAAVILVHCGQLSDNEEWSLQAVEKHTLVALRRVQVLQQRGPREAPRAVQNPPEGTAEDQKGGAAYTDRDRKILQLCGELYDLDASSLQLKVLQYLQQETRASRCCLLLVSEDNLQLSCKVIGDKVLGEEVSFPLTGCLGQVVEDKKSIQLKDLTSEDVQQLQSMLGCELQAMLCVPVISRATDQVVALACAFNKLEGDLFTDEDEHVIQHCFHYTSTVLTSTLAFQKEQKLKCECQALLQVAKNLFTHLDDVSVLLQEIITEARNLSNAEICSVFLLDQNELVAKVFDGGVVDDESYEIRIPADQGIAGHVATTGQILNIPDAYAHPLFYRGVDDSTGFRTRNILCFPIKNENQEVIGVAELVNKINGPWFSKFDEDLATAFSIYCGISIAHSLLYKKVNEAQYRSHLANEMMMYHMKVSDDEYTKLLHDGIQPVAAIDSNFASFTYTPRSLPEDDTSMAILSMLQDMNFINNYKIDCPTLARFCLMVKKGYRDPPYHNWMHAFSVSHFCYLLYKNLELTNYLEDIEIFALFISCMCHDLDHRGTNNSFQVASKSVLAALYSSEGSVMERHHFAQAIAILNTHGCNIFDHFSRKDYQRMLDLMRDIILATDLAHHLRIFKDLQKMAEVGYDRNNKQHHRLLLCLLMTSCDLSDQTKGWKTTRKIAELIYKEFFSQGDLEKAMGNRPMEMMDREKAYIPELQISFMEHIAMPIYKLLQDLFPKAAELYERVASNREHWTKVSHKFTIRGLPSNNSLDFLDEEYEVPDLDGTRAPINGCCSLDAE
Description: as §5, §6, §3

PDE5A = target: T8, PDE5A (Homo sapiens, UniProt O76074); assay: IMAP fluorescence polarization PDE assay, PDE5A; type: biochemical; conditions: substrate cGMP; read-out: Phosphodiesterase Inhibition PDE5A (PDE5) cGMP IC50
T8 construct: purchased BPS Biosciences
Description: as §5, §6, §3

[4] = tested on: HT29 human colon tumor cells; assay: Growth assay (Cell Titer Glo), HT29; type: cell-based; conditions: Homo sapiens, HT-29
From the text: as §1, §2, §4, §3

PDE4B = target: T9, PDE4B (Homo sapiens, UniProt Q07343); assay: IMAP fluorescence polarization PDE assay, PDE4B; type: biochemical; conditions: substrate cAMP; read-out: Phosphodiesterase Inhibition PDE4B cAMP IC50
T9 construct: purchased BPS Biosciences
T9 sequence (Q07343 whole entry): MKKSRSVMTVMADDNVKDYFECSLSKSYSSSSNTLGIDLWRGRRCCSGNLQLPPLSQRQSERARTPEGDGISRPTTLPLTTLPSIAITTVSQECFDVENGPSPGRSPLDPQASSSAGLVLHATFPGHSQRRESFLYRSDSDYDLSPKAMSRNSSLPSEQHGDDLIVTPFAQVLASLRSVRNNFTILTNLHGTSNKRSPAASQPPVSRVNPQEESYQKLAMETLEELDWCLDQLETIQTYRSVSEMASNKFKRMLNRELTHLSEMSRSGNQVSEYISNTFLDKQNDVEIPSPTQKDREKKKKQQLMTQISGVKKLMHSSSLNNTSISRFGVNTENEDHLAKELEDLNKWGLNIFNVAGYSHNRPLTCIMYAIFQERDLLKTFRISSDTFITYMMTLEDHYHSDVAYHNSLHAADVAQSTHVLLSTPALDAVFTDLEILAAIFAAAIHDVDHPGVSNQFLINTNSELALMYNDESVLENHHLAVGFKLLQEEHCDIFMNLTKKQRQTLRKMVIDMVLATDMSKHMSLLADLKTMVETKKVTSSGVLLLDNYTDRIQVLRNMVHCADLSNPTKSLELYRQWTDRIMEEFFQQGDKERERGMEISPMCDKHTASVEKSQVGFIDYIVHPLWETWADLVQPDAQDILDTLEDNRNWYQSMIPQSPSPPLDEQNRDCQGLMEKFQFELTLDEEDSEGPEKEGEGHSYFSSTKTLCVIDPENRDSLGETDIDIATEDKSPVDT
Description: as §5, §6, §3

`COc1cc2ncnc(N3CC[C@@H](Oc4cnc5ccccc5n4)C3)c2cc1OC` [PQ-10, (R)-6,7-dimethoxy-4-{3-(quinoxalin-2-yloxy)pyrrolidin-1-yl}quinazoline] showed a pIC50 ([1]; 72 hours of treatment, FIG. 11C, read-out: IC50, growth of SW-480 colon tumor cells) of 6.66, a pIC50 ([1]; PDE10 Inhibitors table, read-out: Growth Inhibition IC50, SW-480) of 6.70 and a pIC50 ([2]; 72 hours of treatment, FIG. 11, read-out: IC50, growth of HCT116 colon tumor cells) of 6.54. It also gave a pIC50 ([2]; PDE10 Inhibitors table, read-out: Growth Inhibition IC50, HCT-116) of 6.70, a pIC50 (PDE11A; substrate cAMP, read-out: Phosphodiesterase Inhibition PDE11A cAMP IC50) of 4.52 and a pIC50 (PDE11A; substrate cGMP, read-out: Phosphodiesterase Inhibition PDE11A cGMP IC50) of 4.88. It also gave a pIC50 (PDE3B) of 6.56, a pIC50 (PDE10A; Phosphodiesterase Inhibition PDE10A cAMP IC50, substrate cAMP) of 8.27 and a pIC50 (PDE10A; Phosphodiesterase Inhibition PDE10A cGMP IC50, substrate cGMP) of 8.41. The pIC50 (PDE3A; substrate cAMP, read-out: Phosphodiesterase Inhibition PDE3A cAMP IC50) was 6.33, the pIC50 (PDE3A; substrate cGMP, read-out: Phosphodiesterase Inhibition PDE3A cGMP IC50) was 6.68 and the pIC50 (PDE9A) was less than 3.70. It also gave a pIC50 (PDE1A; substrate cAMP, read-out: Phosphodiesterase Inhibition PDE1A cAMP IC50) of 4.53, a pIC50 (PDE1A; substrate cGMP, read-out: Phosphodiesterase Inhibition PDE1A cGMP IC50) of 5.06 and a pIC50 ([3]; 72 hours of treatment, FIG. 11, read-out: IC50, growth of normal colonocytes (NCM460)) of 5.08. For the same molecule, the pIC50 ([3]; PDE10 Inhibitors table, read-out: Growth Inhibition IC50, NCM-460) was less than 5.30, the “normal colonocytes (NCM460) less sensitive than colon tumor cell lines” value ([3]; NCM460 vs HCT116, SW-480 and HT29) was “approximately 40 times” and the pIC50 (PDE2A; substrate cAMP, read-out: Phosphodiesterase Inhibition PDE2A cAMP IC50) was 5.15. The pIC50 (PDE2A; substrate cGMP, read-out: Phosphodiesterase Inhibition PDE2A cGMP IC50) was 5.43, the pIC50 (PDE5A) was 5.74 and the pIC50 ([4]; 72 hours of treatment, FIG. 11, read-out: IC50, growth of HT29 colon tumor cells) was 6.89. The pIC50 ([4]; PDE10 Inhibitors table, read-out: Growth Inhibition IC50, HT-29) was 6.71 and the pIC50 (PDE4B) was 4.75.
